Experimental data published in patent US9801960B2, “Probe for a biological specimen and labelling method and screening method using the probe” (CANON KABUSHIKI KAISHA, priority 2008, dated 2017).

Legend:
[1] = test system: Zebrafish juveniles; assay: In vivo labelling of Zebrafish juveniles with probe for biological specimen; design: key to Staining property: +++: stained; −: no stained; key to Fluorescence sensitivity: +++: strongly observed; ++: moderately observed; +: weakly observed; −: no stained; settings: 1 hour; for Site(s) to be labelled: 10 ng/mL in water, stereoscopic microscope; for Fluorescence sensitivity / Staining property: 10 ng/mL; for Fluorescence sensitivity: fluorescence intensity visually evaluated; for Staining property: visually evaluated
Protocol: Five juveniles of Zebrafish were put into one well of a well plate together with rearing water. After rearing water had been discharged, 1 mL of distilled water was added to the well, and a solution of a staining compound (1) in DMSO was further added thereto so as to achieve a concentration of 10 ng/mL, followed by gentle stirring (pipetting). Further, Egg Water was prepared by dissolving artificial seawater SEALIFE (manufactured by Marinetech Co., Ltd.) in distilled water at a concentration of 60 mg/L. After the whole had been left to stand for 1 hour, distilled water in the well was discharged and replaced by 1 mL of fresh Egg Water. In addition, such an operation that Egg Water was discharged and replaced by 1 mL of fresh Egg Water was repeated twice. One of the juveniles was taken out from the well onto a dish, supplemented with 100 μL of a 3% methylcellulose aqueous solution to fix the movement of the juvenile, and photographed with a stereoscopic microscope (MZ10F: manufactured by Leica Microsystems K.K.).
The same operation as that in Example 1 was performed except that the staining compound (1) used in Example 1 was changed to any one of the staining compounds described in Table 1.
The same operation as that in Example 1 was performed except that the staining compound (1) used in Example 1 was changed to any one of indocyanine green (ICG) and fluorescein.
The staining property of each of the staining compounds of Labelled Examples 1 to 78 and Labelled Comparative Examples 1 and 2 was visually evaluated (+++: stained and −: no stained).
The fluorescence intensity of each of the staining compounds of Labelled Examples 1 to 78 and Labelled Comparative Examples 1 and 2 was visually evaluated (+++: strongly observed, ++: moderately observed, +: weakly observed, and −: no stained).

[2] = Excitation and fluorescence emission wavelength measurement; assay type: physicochemical; design: Stokes shift (λem − λex): unit not given here; settings: aqueous solution: 10 mg/mL solution in DMSO diluted 500-fold with purified water
Protocol: It should be noted that the excitation wavelength and the fluorescence emission wavelength of the staining compound were determined by measuring an aqueous solution, which had been obtained by diluting 500-fold a 10 mg/mL solution of the staining compound in DMSO with purified water, with a fluorescence spectrophotometer FL 4500 manufactured by Hitachi High-Technologies Corporation.

[3] = Storage stability of staining compound solution in DMSO; assay type: physicochemical; settings: 10 ng/mL in DMSO, closed glass container, normal temperature, 1 month; rate of change of absorbance and fluorescence intensity
Protocol: A 10 ng/mL solution of each of the staining compounds of Labelled Examples 1 to 78 and Labelled Comparative Examples 1 and 2 in DMSO was prepared, charged into a well-closed container made of glass, and left to stand still at normal temperature for 1 month. The absorbance and the fluorescence intensity at the time of the start of a storage stability test were measured at a given wavelength, and their rates of change were examined (+++: rates of change of the absorbance and the fluorescence intensity are less than 5%, and thus, the storage stability is highly excellent; ++: rates of change of the absorbance and fluorescence intensity are 5 to 15%, and thus, the storage stability is excellent; and −: rates of change of the absorbance and fluorescence intensity are more than 15%, and thus, the storage stability is poor).

Row | Excitation wavelength λex [2] [nm] | Fluorescence emission wavelength λem [2] [nm] | Stokes shift (λem − λex) [2] | Structure (SMILES) | Site(s) to be labelled [1] | Fluorescence sensitivity [1] | Staining property [1] | Storage stability [3]
1 | 610 | 633 | 23 | COc1ccc(N2c3ccc(/C=C4\C(=O)N(c5ccc(C(=O)O)cc5)N=C4C)cc3C3CCCC32)cc1 (centres unmarked) [Dye 54] | gastrointestinal tract and nose | ++ | +++ | +++ (rates of change of the absorbance and the fluorescence intensity are less than 5%, and thus, the storage stability is highly excellent)
2 | 623 | 671 | 48 | CCN1C(=O)/C(=c2/s/c(=C/c3ccc4c(c3)C3CCCC3N4CC)c(=O)n2CC(=O)O)SC1=S (centres unmarked) [Dye 110] | blood vessel | +++ | +++ | +++ (rates of change of the absorbance and the fluorescence intensity are less than 5%, and thus, the storage stability is highly excellent)
3 | 571 | 648 | 77 | COc1ccc(N2c3ccc(/C=C4/SC(=S)N(CC(=O)O)C4=O)cc3C3CCCC32)cc1 (centres unmarked) [Dye 37] | gallbladder | +++ | +++ | ++ (rates of change of the absorbance and fluorescence intensity are 5 to 15%, and thus, the storage stability is excellent)
4 | 605 | 618 | 13 | CCN1c2ccc(/C=C/c3sc4ccccc4[n+]3CC(=O)O)cc2C2CCCC21 (centres unmarked) [Dye 124] | nose | +++ | +++ | +++ (rates of change of the absorbance and the fluorescence intensity are less than 5%, and thus, the storage stability is highly excellent)
5 | 477 | 567 | 90 | N#C/C(=C\c1ccc2c(c1)C1CCCC1N2c1ccccc1)C(=O)O (centres unmarked) [Dye 13] | liver and gastrointestinal tract | ++ | +++ | +++ (rates of change of the absorbance and the fluorescence intensity are less than 5%, and thus, the storage stability is highly excellent)
6 | 450 | 527 | 77 | CCCCN1C(=O)/C(=c2\s/c(=C/c3ccc4c(c3)C3CCCC3N4c3ccc(OC)cc3)c(=O)n2CC(=O)OCC)SC1=S (centres unmarked) [Dye 62] | gastrointestinal tract | +++ | +++ | +++ (rates of change of the absorbance and the fluorescence intensity are less than 5%, and thus, the storage stability is highly excellent)
7 | 479 | 600 | 121 | N#C/C(=C\c1ccc2c(c1)C1CCCC1N2c1ccc(C=C(c2ccccc2)c2ccccc2)cc1)C(=O)O (centres unmarked) [Dye 108] |  | +++ | +++ | +++ (rates of change of the absorbance and the fluorescence intensity are less than 5%, and thus, the storage stability is highly excellent)
8 | 611 | 720 | 109 | CC1(C)C(/C=C/c2ccc3c(c2)C2CCCC2N3c2ccc(C=C(c3ccccc3)c3ccccc3)cc2)=[N+](CCC(=O)O)c2ccccc21 (centres unmarked) [Dye 35] | nose | +++ | +++ | ++ (rates of change of the absorbance and fluorescence intensity are 5 to 15%, and thus, the storage stability is excellent)
9 | 540 | 690 | 150 | CCN1C(=O)/C(=c2\s/c(=C/c3ccc4c(c3)C3CCCC3N4c3cccc(SC)c3)c(=O)n2CC(=O)O)SC1=S (centres unmarked) [Dye 138] | gastrointestinal tract | +++ | +++ | +++ (rates of change of the absorbance and the fluorescence intensity are less than 5%, and thus, the storage stability is highly excellent)
10 | 570 | 657 | 87 | COc1cc(/C=C2\C(=O)ON=C2c2ccccc2)cc2c1N(c1ccccc1)C1CCCC21 (centres unmarked) [Dye 34] | nose | +++ | +++ | +++ (rates of change of the absorbance and the fluorescence intensity are less than 5%, and thus, the storage stability is highly excellent)
11 | 520 | 640 | 120 | CSc1cccc(N2c3ccc(/C=C4/SC(=S)N(CC(=O)O)C4=O)cc3C3CCCC32)c1 (centres unmarked) [Dye 115] | blood vessel, gallbladder, and gastrointestinal | +++ | +++ | +++ (rates of change of the absorbance and the fluorescence intensity are less than 5%, and thus, the storage stability is highly excellent)
12 | 440 | 600 | 160 | CSc1ccc(N2c3ccc(/C=C(/C#N)C(=O)O)cc3C3CCCC32)cc1 (centres unmarked) [Dye 134] | blood vessel | +++ | +++ | +++ (rates of change of the absorbance and the fluorescence intensity are less than 5%, and thus, the storage stability is highly excellent)
13 | 502 | 644 | 142 | CCN1C(=O)/C(=c2\s/c(=C/c3ccc4c(c3)C3CCCC3N4c3ccccc3)c(=O)n2CC(=O)O)SC1=S (centres unmarked) [Dye 30] |  | +++ | +++ | +++ (rates of change of the absorbance and the fluorescence intensity are less than 5%, and thus, the storage stability is highly excellent)
14 | 530 | 680 | 150 | COc1ccc(N2c3ccc(/C=C4\Oc5ccc(I)cc5C4=O)cc3C3CCCC32)cc1 (centres unmarked) [Dye 142] | gastrointestinal tract | +++ | +++ | +++ (rates of change of the absorbance and the fluorescence intensity are less than 5%, and thus, the storage stability is highly excellent)
15 | 560 | 760 | 200 | C[n+]1c(/C=c2\s/c(=C/c3ccc4c(c3)C3CCCC3N4c3ccc(C=C(c4ccccc4)c4ccccc4)cc3)c(=O)n2CC(=O)O)sc2ccccc21 (centres unmarked) [Dye 136] | gastrointestinal tract | +++ | +++ | +++ (rates of change of the absorbance and the fluorescence intensity are less than 5%, and thus, the storage stability is highly excellent)
16 | 570 | 640 | 70 | CC[N+]1=C(C=c2s/c(=C/c3ccc4c(c3)C3CCCC3N4c3ccccc3)c(=O)n2CC(=O)O)C(C)(C)c2ccccc21 (centres unmarked) [Dye 139] | nose | +++ | +++ | +++ (rates of change of the absorbance and the fluorescence intensity are less than 5%, and thus, the storage stability is highly excellent)
